The test system of one experiment is Klebsiella pneumoniae. Description: microbe, parasite or virus in culture. The conditions noted are these: ATCC 700603, 18 h, ASSAY_TEST Inhibition of Bacterial Growth, detection method Absorption (OD600), MEDIA CAMHB, plate type 384well, NBS, CORNING #3640.
For another experiment, the system named is Acinetobacter baumannii. Description: microbe, parasite or virus in culture. Particulars: ATCC 19606, 18 h, ASSAY_TEST Inhibition of Bacterial Growth, detection method Absorption (OD600), MEDIA CAMHB, plate type 384well, NBS, CORNING #3640.
The test system of another experiment is Escherichia coli. Description: microbe, parasite or virus in culture. The conditions noted are these: ATCC 25922, 18 h, ASSAY_TEST Inhibition of Bacterial Growth, detection method Absorption (OD600), MEDIA CAMHB, plate type 384well, NBS, CORNING #3640.
In experiment [1] the test system is Staphylococcus aureus. Description: microbe, parasite or virus in culture. Particulars: ATCC 43300, 18 h, ASSAY_TEST Inhibition of Bacterial Growth, detection method Absorption (OD600), MEDIA CAMHB, plate type 384well, NBS, CORNING #3640.
Description: (§1) Antibacterial activity against Staphylococcus aureus MRSA ATCC 43300 (CO-ADD:GP_020); MIC in CAMBH media, using NBS plates, by OD(600)
The next experiment relates to HEK293. Nature of the experiment: cells. It counts as functional, Homo sapiens, ATCC CRL1573. Particulars: ASSAY_TEST Inhibition of Cell Viability, detection method Resazurin, Fluorescence (ex560/em590), MEDIA DMEM with 10% FBS, plate type 384well, TC, CORNING #3712, time 18 hr. For orientation: Resazurin is reduced to fluorescent resorufin, in cell work by metabolically active cells.

In experiment [2] the test system is Candida albicans. Description: microbe, parasite or virus in culture. The conditions noted are these: ATCC 90028, ASSAY_TEST Inhibition of Fungal Growth, detection method Absorption (OD530), plate type 384well, NBS, CORNING #3640.
Description: (§2) Antifungal activity against Candida albicans ATCC 90028 (CO-ADD:FG_001); MIC in YNB media using NBS plates, by OD630
Another experiment concerns Pseudomonas aeruginosa. Description: microbe, parasite or virus in culture. The conditions noted are these: ATCC 27853, 18 h, ASSAY_TEST Inhibition of Bacterial Growth, detection method Absorption (OD600), MEDIA CAMHB, plate type 384well, NBS, CORNING #3640.
For experiment [3], the system named is Staphylococcus aureus. Particulars: ASSAY_TEST Inhibition of Bacterial Growth, detection method Absorption (OD600), MEDIA CAMHB, plate type 384well, NBS, CORNING #3640, time 18 hr.
Description: as §1
For experiment [4], the system named is Candida albicans. Particulars: ASSAY_TEST Inhibition of Fungal Growth; detection method Absorption (OD530); plate type 384well; NBS; CORNING #3640.
Description: as §2
Where [5] appears, read: Homo sapiens, ATCC CRL1573, HEK293, read-out: CC50.

In brackets after ≈: the same amount, converted by molar mass. Several values for one entry are separate records, joined by “and”; a condition that tells them apart may be missing. Equal values may be shown once. Some results are limits rather than exact numbers.

Description for Acinetobacter baumannii: Antibacterial activity against Acinetobacter baumannii ATCC 19606 (CO-ADD:GN_034); MIC in CAMBH media using NBS plates, by OD600
Description for Cryptococcus neoformans: Antifungal activity against Cryptococcus neoformans H99 ATCC 208821 (CO-ADD:FG_002); MIC in YNB media using NBS plates, by Resazurin OD(600-570)
Description for Escherichia coli: Antibacterial activity against Escherichia coli ATCC 25922 (CO-ADD:GN_001); MIC in CAMBH media using NBS plates, by OD(600)
Description for Klebsiella pneumoniae: Antibacterial activity against Klebsiella pneumoniae MDR ATCC 70063 (CO-ADD:GN_003); MIC in CAMBH media using NBS plates, by OD(600)
Description for Pseudomonas aeruginosa: Antibacterial activity against Pseudomonas aeruginosa ATCC 27853 (CO-ADD:GN_042); MIC in CAMBH media using NBS plates, by OD(600)

What is called CC50 is the concentration giving 50% cytotoxicity. `COCCOC1CCN(CCNC(=O)c2cc(NC(=O)c3cc(NC(=O)c4ccc(/C=C/c5ccc6nonc6c5)cc4)cn3C)cn2C)CC1.O=S(=O)(O)O`: the MIC against Klebsiella pneumoniae, against Acinetobacter baumannii, in the experiment on Escherichia coli, against Staphylococcus aureus [1], in the experiment on Cryptococcus neoformans and in the experiment with Candida albicans [2] was greater than 32 µg/mL in each case. Besides, the MIC against Pseudomonas aeruginosa was greater than 32 µg/mL. Moreover, the CC50 in the experiment with HEK293 (setting [5]) came to 3.84 µg/mL.
For `CC(C)CCc1sc(NC(=O)c2cc(NC(=O)c3cc(NC(=N)c4ccccc4)cn3C)cn2C)nc1C(=O)NCCCN(C)C.O=C(O)C(F)(F)F.O=C(O)C(F)(F)F`, the MIC against Klebsiella pneumoniae is greater than 32 µg/mL; in the experiment on Acinetobacter baumannii it was greater than 32 µg/mL; against Escherichia coli, greater than 32 µg/mL; with Staphylococcus aureus [1], greater than 32 µg/mL; in the experiment on Cryptococcus neoformans, 4 µg/mL; against Candida albicans [2], greater than 32 µg/mL. Also, in the experiment on Pseudomonas aeruginosa, the MIC was greater than 32 µg/mL. Also, in the experiment with HEK293 (setting [5]), the CC50 was greater than 32 µg/mL.
As for `COCCOC1CCN(CCNC(=O)c2cc(NC(=O)c3cc(NC(=O)c4ccc(/C=C/c5cnc6ccccc6c5)cc4)cn3C)cn2C)CC1`, the MIC in the experiment with Klebsiella pneumoniae is greater than 32 µg/mL; against Acinetobacter baumannii, greater than 32 µg/mL; with Escherichia coli, greater than 32 µg/mL; in the experiment with Staphylococcus aureus [1], 0.5 µg/mL (≈ 0.71 µM); with Cryptococcus neoformans, greater than 32 µg/mL; against Candida albicans [2] it was greater than 32 µg/mL. Further, the MIC in the experiment with Pseudomonas aeruginosa was greater than 32 µg/mL. Also, the CC50 in the experiment with HEK293 (setting [5]) was determined as 1.96 µg/mL (≈ 2.78 µM).
In the case of `COc1cccc(/C=C/c2ccc(C(=O)Nc3cc(C(=O)Nc4cc(C(=O)NCCC(=N)N)n(C)c4)n(C)c3)cc2)c1.O=C(O)C(F)(F)F`, the MIC is greater than 32 µg/mL in the experiment on Klebsiella pneumoniae; greater than 32 µg/mL in the experiment on Acinetobacter baumannii; greater than 32 µg/mL in the experiment on Escherichia coli; 4 µg/mL against Staphylococcus aureus [3]; 8 µg/mL against Staphylococcus aureus [1]; greater than 32 µg/mL in the experiment with Candida albicans [2]. The MIC is 16 µg/mL and 32 µg/mL with Candida albicans [4]; greater than 32 µg/mL in the experiment with Pseudomonas aeruginosa. In addition, the CC50 in the experiment with HEK293 was 10.1 µg/mL and 10.7 µg/mL; in the experiment with HEK293 (setting [5]), 15.8 µg/mL.
With `COc1ccc(/C=C/c2ccc(C(=O)Nc3cc(C(=O)Nc4cc(C(=O)NCCN5CCCCC5)n(CCCc5ccccc5)c4)n(C)c3)cn2)cc1.O=C(O)C(F)(F)F.O=C(O)C(F)(F)F`, the MIC against Klebsiella pneumoniae is greater than 32 µg/mL; with Acinetobacter baumannii, greater than 32 µg/mL; against Escherichia coli, greater than 32 µg/mL; with Staphylococcus aureus [1] it was greater than 32 µg/mL; against Cryptococcus neoformans it was 16 µg/mL; against Candida albicans [2], greater than 32 µg/mL. In addition, the MIC with Pseudomonas aeruginosa was greater than 32 µg/mL. In addition, in the experiment with HEK293 (setting [5]), the CC50 is greater than 32 µg/mL.
Turning to `Cn1cc(NC(=O)c2cc(NC(=O)c3ccc(/C=C/c4ccc5ccccc5n4)cc3)cn2C)cc1C(=O)NCCN1CCOCC1.O=C(O)C(F)(F)F`, the MIC against Klebsiella pneumoniae is greater than 32 µg/mL; in the experiment on Acinetobacter baumannii, greater than 32 µg/mL; against Escherichia coli, greater than 32 µg/mL; against Staphylococcus aureus [1] it was 4 µg/mL; in the experiment on Cryptococcus neoformans, 4 µg/mL; with Candida albicans [2], 4 µg/mL. In the experiment on Pseudomonas aeruginosa, the MIC is greater than 32 µg/mL. The cytotoxic concentration (CC50) in the experiment on HEK293 (setting [5]) was 1.95 µg/mL.
Take `CC(C)n1cc(NC(=O)c2cc(NC(=O)c3cc4ccccc4oc3=O)cn2C)cc1C(=O)Nc1cc(C(=O)NCCCN(C)C)n(C)c1.O=C(O)C(F)(F)F`: the MIC was greater than 32 µg/mL against Klebsiella pneumoniae; greater than 32 µg/mL against Acinetobacter baumannii; greater than 32 µg/mL against Escherichia coli; greater than 32 µg/mL with Staphylococcus aureus [1]; 32 µg/mL in the experiment with Cryptococcus neoformans; greater than 32 µg/mL against Candida albicans [2]. In addition, the MIC against Pseudomonas aeruginosa is greater than 32 µg/mL. The CC50 in the experiment with HEK293 (setting [5]) is greater than 32 µg/mL.
In the case of `Cn1cc(NC(=O)c2cc(NC(=O)c3ccc(/C=C/c4cc5ccccc5nc4On4nnc5ccccc54)cc3)cn2C)cc1C(=O)NCCN1CCOCC1.O=C(O)C(F)(F)F`, the MIC with Klebsiella pneumoniae, against Acinetobacter baumannii, with Escherichia coli, against Staphylococcus aureus [1], against Cryptococcus neoformans and in the experiment on Candida albicans [2] was greater than 32 µg/mL each time. Further, the MIC in the experiment with Pseudomonas aeruginosa is greater than 32 µg/mL. In addition, the CC50 in the experiment with HEK293 (setting [5]) was greater than 32 µg/mL.
As for `CC(=O)/C=C/c1ccc(C(=O)Nc2cc(C(=O)Nc3cc(C(=O)NCCN4CCOCC4)n(C)c3)n(C)c2)cc1.O=C(O)C(F)(F)F`, the MIC against Klebsiella pneumoniae, in the experiment on Acinetobacter baumannii, in the experiment on Escherichia coli, in the experiment on Staphylococcus aureus [1], in the experiment on Cryptococcus neoformans and against Candida albicans [2] was greater than 32 µg/mL throughout. Besides, the MIC in the experiment with Pseudomonas aeruginosa is greater than 32 µg/mL. Moreover, the CC50 with HEK293 (setting [5]) worked out at 7.01 µg/mL.
As for `CN(C)CCNC(=O)c1cc(NC(=O)c2cc(NC(=O)c3ccc(/C=C/c4cnc5ccccc5c4)cc3)cn2C)cn1C.O=C(O)C(F)(F)F.O=C(O)C(F)(F)F`, the MIC in the experiment with Klebsiella pneumoniae is greater than 32 µg/mL; in the experiment on Acinetobacter baumannii it was greater than 32 µg/mL; in the experiment on Escherichia coli it was greater than 32 µg/mL; in the experiment with Staphylococcus aureus [3], 1 µg/mL; with Staphylococcus aureus [1] it was 0.5 µg/mL; in the experiment on Cryptococcus neoformans it was 16 µg/mL. The MIC against Candida albicans [2] was 32 µg/mL; with Candida albicans [4], 32 µg/mL and >32 µg/mL; against Pseudomonas aeruginosa, greater than 32 µg/mL. The CC50 in the experiment with HEK293 is 4.83 µg/mL and 2.72 µg/mL and 6.4 µg/mL.
In the case of `Cn1cc(NC(=O)c2cc(NC(=O)c3cc4ccccc4cn3)cn2C)cc1C(=O)NCCN1CCOCC1.O=C(O)C(F)(F)F`, the MIC with Klebsiella pneumoniae, against Acinetobacter baumannii, with Escherichia coli, in the experiment on Staphylococcus aureus [1], with Cryptococcus neoformans and in the experiment with Candida albicans [2] was greater than 32 µg/mL in each case. Further, the MIC in the experiment on Pseudomonas aeruginosa was greater than 32 µg/mL. For the same compound, in the experiment on HEK293 (setting [5]), the CC50 was greater than 32 µg/mL.
As for `CSc1ccc(/C=C/c2ccc3cc(C(=O)Nc4cc(C(=O)Nc5cc(C(=O)NCCN6CCOCC6)n(C)c5)n(C)c4)ccc3n2)cc1.O=C(O)C(F)(F)F`, the MIC against Klebsiella pneumoniae was greater than 32 µg/mL; against Acinetobacter baumannii, greater than 32 µg/mL; against Escherichia coli it was greater than 32 µg/mL; in the experiment with Staphylococcus aureus [1] it was greater than 32 µg/mL; with Cryptococcus neoformans it was 8 µg/mL; against Candida albicans [2] it was 4 µg/mL. In addition, the MIC against Pseudomonas aeruginosa is greater than 32 µg/mL. In addition, the CC50 in the experiment with HEK293 (setting [5]) is greater than 32 µg/mL.
Consider `Cn1cc(NC(=O)c2ccc(/C=C/c3cnc4ccccc4c3)cc2)cc1C(=O)Nc1cc(C(=O)NCCN2CCOCC2)n(CCCc2cn(CCc3ccccc3)nn2)c1.O=C(O)C(F)(F)F`, for which the MIC against Klebsiella pneumoniae was greater than 32 µg/mL; against Acinetobacter baumannii, greater than 32 µg/mL; in the experiment on Escherichia coli, greater than 32 µg/mL; in the experiment with Staphylococcus aureus [1], greater than 32 µg/mL; in the experiment with Cryptococcus neoformans, 16 µg/mL; against Candida albicans [2], greater than 32 µg/mL. In the experiment on Pseudomonas aeruginosa, the MIC was greater than 32 µg/mL. Besides, in the experiment on HEK293 (setting [5]), the CC50 was greater than 32 µg/mL.
On to `Cn1cc(NC(=O)c2cc(NC(=O)c3cc(NC(=O)c4ccc(Cl)cc4Cl)cn3C)cn2C)cc1C(=O)NCCCN1CCOCC1.O=C(O)C(F)(F)F`, for which the MIC in the experiment with Klebsiella pneumoniae, with Acinetobacter baumannii, with Escherichia coli, against Staphylococcus aureus [1], against Cryptococcus neoformans and against Candida albicans [2] was greater than 32 µg/mL each time. In the experiment on Pseudomonas aeruginosa, this compound gave an MIC greater than 32 µg/mL. For the same compound, in the experiment on HEK293 (setting [5]), the CC50 stood at 7.32 µg/mL.
Consider `CC(C)c1sc(NC(=O)c2cc(NC(=O)c3cc(NC(=O)c4cc(NC=O)cn4C)cn3C)cn2C)nc1C(=O)NCCCN(C)C.O=C(O)C(F)(F)F`, for which the MIC is greater than 32 µg/mL with Klebsiella pneumoniae; greater than 32 µg/mL in the experiment on Acinetobacter baumannii; greater than 32 µg/mL in the experiment on Escherichia coli; 16 µg/mL with Staphylococcus aureus [1]; greater than 32 µg/mL in the experiment with Cryptococcus neoformans; greater than 32 µg/mL in the experiment on Candida albicans [2]. Further, the MIC against Pseudomonas aeruginosa is greater than 32 µg/mL. The CC50 in the experiment on HEK293 (setting [5]) was greater than 32 µg/mL.

Source of the values: ChEMBL document CHEMBL4513139, “CO-ADD screening of University of Strathclyde (UK) compounds”.
